{
  "source": "patent US20250108038A1",
  "about": "(priority 2023, published 2025)",
  "key": {"[1]": {"format": "physicochemical", "method": "All conditions and stock preparation procedures were identical to the conditions applied in the transporter assays (Table 74, Table 75 and Table 76). […] A follow-up assay was carried out at 7 concentrations in order to correct the nominal concentrations for the IC50 calculations (Table 78). Where NSB was observed (>20% loss) the assay concentrations were corrected according to the result of the respective NSB assay.\nAll conditions and stock preparation procedures were identical to the conditions applied in the transporter assays.\nSamples (1.5×C0 or Total) were immediately taken after mixing to determine the total initial concentrations. The assay mixes were pre-incubated for 15 minutes at 37° C. and at 32° C. in case of BCRP and MDR1. After the pre-incubation step the assay mixes were 1.5-times diluted with (pre-warmed) transport buffer reaching the final nominal concentrations of the compounds in the VT assay and then were further incubated at 37° C. or 32° C. for BCRP and MDR1 and sampled in the end of incubation (timc).\nThe aqueous buffer was mixed, and samples (C0 or Total) were immediately taken for determining the total initial concentrations. The helper plate was pre-warmed for 15 minutes at 37° C. The pre-warmed aliquots of the aqueous buffers with the test articles (50 μL) were transferred from the helper plate into the wells of another 96-well plate (assay plate) and incubated for 30 minutes (pre-incubation) then removed from the wells. Thereafter the same wells of the assay plate were dosed again with other aliquots of the aqueous buffers with the test articles and were further incubated in the assay plate at 37° C. and finally sampled (tinc)."}, "Long Evans rats": {"tested_on": "Long Evans rats", "assay": "Time-restricted (deprivation-induced) feeding, food intake", "format": "in vivo, Long Evans rat", "method": "Food consumption was limited to 2 h/day and so was motivated by hunger caused by 22 h food deprivation. Water was freely available 24 h/day.\nSpecifically, 12 male Long-Evans rats were food-deprived for 22 h with a 2 h feeding period each day. Rats were trained to consume daily food during the 2 h period over 25 days. The testing phase was initiated once the rats consistently consumed 16-18 g of food per day with ≤10% variance in amount of feed consumed. Feeding took place in designated individual boxes in a quiet room separate from the housing room. Continuous remote monitoring via video camera during feeding was used to assess the BSS. Food consumption was measured by weighing the total available food before and after the 2 h feeding window, correcting for spillage. Lorcaserin (1 mg/kg) was included as a reference control (Higgins et al, 2011, Neuropsychopharmacology. 37(5): 1177-1191). Subjects were tested using a repeated-measures, Latin square design with 2-3 days wash-out between treatment cycles.\nDrug was administered at a volume of 1 mL/kg, intraperitoneal (IP). […]: 0.1, 0.3, 1, 3 mg/kg. There was a pretreatment time of 30 minutes.\nDrug was administered at a volume of 1 mL/kg, subcutaneous (SC) route. One dose was tested: 1 mg/kg (expressed as base). There was a pretreatment time of 10 minutes.\nFollowing a five day period of familiarization to the test facility, animals were placed on a restricted diet regimen, in which they were allotted approximately 40 g of standard laboratory chow once per day (between 10:00 h and 14:00 h). Rats were trained to consume the daily food (approximately 16-18 g of feed consumed) over a 2 h period. Daily food intakes were stable by study Day 25, with the quantity of feed consumed varying by ≤10% per day. Water was available ad-libitum. Subjects were pair-housed for the duration of the study and were maintained on a 12 h/12 h light/dark cycle with all testing conducted during the animals' light cycle. All animal use procedures were performed in accordance with the principles of the Canadian Council on Animal Care (CCAC).\nFeed was measured using a certified scale according to standard operating procedures prior to testing. Residual feed was weighed following completion of the 2 h feeding window to track total intake (g).\nCompound I-19 and Lorcaserin were prepared fresh on each test day. Test article was suspended in 0.8% DMSO, 6% PEG400, and 93.2% HβCD (6% in H2O) and sonicated until fully dissolved. […] Pretreatment time (ptt) was 30 minutes prior to commencement of testing. Lorcaserin was dissolved in 0.9% saline and administered via the subcutaneous route with a dose volume of 1 mL/kg with a ppt of 10 minutes.\nThe primary measure from the BSS test was total measured food intake (g), expressed as mean+SEM. Data were analysed by repeated-measures ANOVA (with treatment as a factor) (Statistica Version 11, Statsoft Inc. [2012]). Planned post-hoc comparisons were made in the event of a significant main effect using Dunnett's test. Significance was set at P<0.05."}, "[2]": {"settings": "HBSS (pH 7.4) uptake buffer, 37° C., nominal 3.00 μM"}, "[3]": {"settings": "HBSS (pH 7.4) uptake buffer, 37° C., nominal 30.00 μM"}, "[4]": {"settings": "KH (pH 8.0) uptake buffer, 37° C., nominal 3.00 μM"}, "[5]": {"settings": "KH (pH 8.0) uptake buffer, 37° C., nominal 30.00 μM"}, "[6]": {"settings": "Transport buffer with sucrose (pH 7.4), BCRP and MDR1 VT, 32° C., nominal C0 5.00 μM"}, "[7]": {"settings": "Transport buffer with sucrose (pH 7.4), BCRP and MDR1 VT, 32° C., nominal C0 50.00 μM"}},
  "note": "“And” between values parts separate entries of the source, which are not always exact repeats. Equal values may be shown once. Where a name gives a salt, the structure may show the parent alone. Read-outs that look alike come from different tables or passages of the source.",
  "data": [
    {"smiles": "OC1(c2ccc(Cl)cc2)c2ccccc2C2=NCCN21", "note": "(stereo not shown) [Compound A, 5-(4-chlorophenyl)-2,3-dihydroimidazo[1,2-b]isoindol-5-ol, reference compound]", "values": [
      {"measurement": "Non-specific binding (NSB)", "setting": "[1]; BCRP, BSEP and MDR1 VT inhibition assay setup", "value": "did not show any NSB"},
      {"measurement": "Non-specific binding (NSB)", "setting": "[1]; HBSS (pH 7.4) and KH (pH 8.0) uptake assay buffers", "value": "did not show any NSB"},
      {"measurement": "Concentration after incubation", "setting": "[1]; [2]", "value": "1.85 ± 0.13", "unit": "µM"},
      {"measurement": "Loss of Compound A during the NSB assay", "setting": "[1]; [2]", "value": 14, "unit": "%"},
      {"measurement": "Measured dosing concentrations", "setting": "[1]; [2]", "value": "2.16 ± 0.05", "unit": "µM"},
      {"measurement": "Concentration after incubation", "setting": "[1]; [3]", "value": "17.66 ± 0.35", "unit": "µM"},
      {"measurement": "Loss of Compound A during the NSB assay", "setting": "[1]; [3]", "value": 15, "unit": "%"},
      {"measurement": "Measured dosing concentrations", "setting": "[1]; [3]", "value": "20.71 ± 0.67", "unit": "µM"},
      {"measurement": "Concentration after incubation", "setting": "[1]; [4]", "value": "1.86 ± 0.06", "unit": "µM"},
      {"measurement": "Loss of Compound A during the NSB assay", "setting": "[1]; [4]", "value": 20, "unit": "%"},
      {"measurement": "Measured dosing concentrations", "setting": "[1]; [4]", "value": "2.31 ± 0.11", "unit": "µM"},
      {"measurement": "Concentration after incubation", "setting": "[1]; [5]", "value": "18.15 ± 0.42", "unit": "µM"},
      {"measurement": "Loss of Compound A during the NSB assay", "setting": "[1]; [5]", "value": 18, "unit": "%"},
      {"measurement": "Measured dosing concentrations", "setting": "[1]; [5]", "value": "22.13 ± 0.61", "unit": "µM"},
      {"measurement": "Concentration after incubation (tinc)", "setting": "[1]; [6]", "value": "6.27 ± 0.69", "unit": "µM"},
      {"measurement": "Loss of Compound A during the NSB assay", "setting": "[1]; [6]", "value": 3, "unit": "%"},
      {"measurement": "Measured dosing concentrations ([…] C0)", "setting": "[1]; [6]", "value": "9.65 ± 1.52", "unit": "µM"},
      {"measurement": "Concentration after incubation (tinc)", "setting": "[1]; [7]", "value": "55.92 ± 2.44", "unit": "µM"},
      {"measurement": "Loss of Compound A during the NSB assay", "setting": "[1]; [7]", "value": "−2", "unit": "%"},
      {"measurement": "Measured dosing concentrations ([…] C0)", "setting": "[1]; [7]", "value": "82.20 ± 3.76", "unit": "µM"}
    ]},
    {"smiles": "C[C@H]1CNCCc2ccc(Cl)cc21", "note": "[lorcaserin, Lorcaserin hydrochloride, reference compound]", "values": [
      {"measurement": "Food Consumption, AVG", "setting": "Long Evans rats; Lorcaserin 1 mg/kg subcutaneous, 2 h feeding, average of 12 animals", "value": 14.6, "unit": "grams"},
      {"measurement": "Food Consumption", "setting": "Long Evans rats; Lorcaserin 1 mg/kg subcutaneous, 2 h feeding, individual animals LT-1 to LT-12, hydrochloride", "value": "17.9 grams and 12.7 grams (2×) and 12.5 grams and 18 grams and 17.7 grams and 16.3 grams and 15.7 grams and 12.9 grams and 13.1 grams and 13.5 grams and 12 grams"},
      {"measurement": "decrease of food intake vs vehicle", "setting": "Long Evans rats; lorcaserin 1 mg/kg SC", "value": 17.4, "unit": "%"},
      {"measurement": "food intake (2 h feeding period)", "setting": "Long Evans rats; rat, in vivo", "value": "14.6 ± 0.7", "unit": "g"}
    ]},
    {"smiles": "COCCOC1(c2ccc(Cl)cc2)c2ccccc2C2=NCCN21", "note": "(stereo not shown) [Compound I-4]", "values": [
      {"measurement": "Compound A formed (Aa/Ai)", "setting": "in vitro; 0 min", "value": 0.57},
      {"measurement": "% Remaining", "setting": "in vitro; 2.0 μM, 0 min", "value": 100, "unit": "%"},
      {"measurement": "Aa/Ai Mean (N = 2)", "setting": "in vitro; 2.0 μM, 0 min", "value": 3.25},
      {"measurement": "% Remaining", "setting": "in vitro; 2.0 μM, 5 min", "value": 95.0, "unit": "%"},
      {"measurement": "Aa/Ai Mean (N = 2)", "setting": "in vitro; 2.0 μM, 5 min", "value": 3.08},
      {"measurement": "% Remaining", "setting": "in vitro; 2.0 μM, 15 min", "value": 99.6, "unit": "%"},
      {"measurement": "Aa/Ai Mean (N = 2)", "setting": "in vitro; 2.0 μM, 15 min", "value": 3.23},
      {"measurement": "% Remaining", "setting": "in vitro; 2.0 μM, 30 min", "value": 90.8, "unit": "%"},
      {"measurement": "Aa/Ai Mean (N = 2)", "setting": "in vitro; 2.0 μM, 30 min", "value": 2.95},
      {"measurement": "% Remaining", "setting": "in vitro; 2.0 μM, 60 min", "value": 83.6, "unit": "%"},
      {"measurement": "Aa/Ai Mean (N = 2)", "setting": "in vitro; 2.0 μM, 60 min", "value": 2.72},
      {"measurement": "T1/2", "setting": "in vitro; 2.0 μM, 60 min incubation", "value": ">3.12", "unit": "h"},
      {"measurement": "Compound A formed (Aa/Ai)", "setting": "in vitro; 5 min", "value": 0.66},
      {"measurement": "Compound A formed (Aa/Ai)", "setting": "in vitro; 15 min", "value": 0.58},
      {"measurement": "Compound A formed (Aa/Ai)", "setting": "in vitro; 30 min", "value": 0.52},
      {"measurement": "Compound A formed (Aa/Ai)", "setting": "in vitro; 60 min", "value": 0.42}
    ]}
  ]
}
